Holding throughout (assay): Dundee kinase panel
Type in all cases: biochemical
Holding throughout (conditions): for remaining activity at 1 µM: read-out: residual activity

In one assay the target is T1, Aurora B (Homo sapiens, UniProt Q96GD4).
T1 construct: lines 1-140) and Reaction Biology
How it is done: (§1) Compounds were screened at 1 μM. For key hits, pIC50 values were then determined by HTRF as above. […] Stability in mouse and human liver microsomes was determined by Cyprotex.

The target in another assay is T2, IKKe (Homo sapiens, UniProt Q14164).
T2 construct: lines 1-140) and Reaction Biology
T2 sequence (Q14164 1-716): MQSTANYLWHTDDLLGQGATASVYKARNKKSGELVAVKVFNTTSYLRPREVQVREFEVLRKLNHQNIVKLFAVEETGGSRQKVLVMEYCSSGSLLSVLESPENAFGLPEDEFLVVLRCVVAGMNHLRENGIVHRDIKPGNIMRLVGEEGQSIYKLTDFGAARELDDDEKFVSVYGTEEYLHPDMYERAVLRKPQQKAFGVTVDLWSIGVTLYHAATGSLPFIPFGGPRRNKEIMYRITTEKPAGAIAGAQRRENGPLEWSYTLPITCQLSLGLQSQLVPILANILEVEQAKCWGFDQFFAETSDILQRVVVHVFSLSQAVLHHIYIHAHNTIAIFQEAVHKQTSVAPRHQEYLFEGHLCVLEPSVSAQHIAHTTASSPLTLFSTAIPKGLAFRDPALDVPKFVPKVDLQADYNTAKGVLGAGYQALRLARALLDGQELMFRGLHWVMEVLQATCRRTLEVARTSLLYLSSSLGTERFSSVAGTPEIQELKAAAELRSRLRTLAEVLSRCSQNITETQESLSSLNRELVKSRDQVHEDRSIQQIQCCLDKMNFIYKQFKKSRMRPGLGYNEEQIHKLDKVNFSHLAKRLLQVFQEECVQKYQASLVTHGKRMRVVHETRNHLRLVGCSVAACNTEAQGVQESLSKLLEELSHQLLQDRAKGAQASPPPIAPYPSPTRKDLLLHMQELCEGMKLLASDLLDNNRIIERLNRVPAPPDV
How it is done:
as §1

Another assay concerns the target T3, MARK1 (Homo sapiens, UniProt Q9P0L2).
T3 construct: lines 1-140) and Reaction Biology
How it is done:
(§2) Kinase selectivity profiling was performed by the International Centre for Kinase Profiling, MRC Protein Phosphorylation and Ubiquitylation Unit (141 kinases; Premier Screen, http://www.kinase-screen.mrc.ac.uk), using a [γ-^33P]ATP filter binding assay ([Bain et al., 2007]). Compounds were screened at 1 μM. For key hits, pIC50 values were then determined by HTRF as above. More complete kinome profiling was performed by Reaction Biology (376 kinases). Stability in mouse and human liver microsomes was determined by Cyprotex.

The next assay concerns the target T4, MINK1 (Homo sapiens, UniProt Q8N4C8).
T4 construct: lines 1-140) and Reaction Biology
How it is done: as §2

Another assay has as its target T5, MAP4K5 (Homo sapiens, UniProt Q9Y4K4).
T5 construct: lines 1-140) and Reaction Biology
Here is the method: as §2

In the next assay the target is T6, ULK2 (Homo sapiens, UniProt Q8IYT8).
T6 construct: lines 1-140) and Reaction Biology
T6 sequence (Q8IYT8 1-1036): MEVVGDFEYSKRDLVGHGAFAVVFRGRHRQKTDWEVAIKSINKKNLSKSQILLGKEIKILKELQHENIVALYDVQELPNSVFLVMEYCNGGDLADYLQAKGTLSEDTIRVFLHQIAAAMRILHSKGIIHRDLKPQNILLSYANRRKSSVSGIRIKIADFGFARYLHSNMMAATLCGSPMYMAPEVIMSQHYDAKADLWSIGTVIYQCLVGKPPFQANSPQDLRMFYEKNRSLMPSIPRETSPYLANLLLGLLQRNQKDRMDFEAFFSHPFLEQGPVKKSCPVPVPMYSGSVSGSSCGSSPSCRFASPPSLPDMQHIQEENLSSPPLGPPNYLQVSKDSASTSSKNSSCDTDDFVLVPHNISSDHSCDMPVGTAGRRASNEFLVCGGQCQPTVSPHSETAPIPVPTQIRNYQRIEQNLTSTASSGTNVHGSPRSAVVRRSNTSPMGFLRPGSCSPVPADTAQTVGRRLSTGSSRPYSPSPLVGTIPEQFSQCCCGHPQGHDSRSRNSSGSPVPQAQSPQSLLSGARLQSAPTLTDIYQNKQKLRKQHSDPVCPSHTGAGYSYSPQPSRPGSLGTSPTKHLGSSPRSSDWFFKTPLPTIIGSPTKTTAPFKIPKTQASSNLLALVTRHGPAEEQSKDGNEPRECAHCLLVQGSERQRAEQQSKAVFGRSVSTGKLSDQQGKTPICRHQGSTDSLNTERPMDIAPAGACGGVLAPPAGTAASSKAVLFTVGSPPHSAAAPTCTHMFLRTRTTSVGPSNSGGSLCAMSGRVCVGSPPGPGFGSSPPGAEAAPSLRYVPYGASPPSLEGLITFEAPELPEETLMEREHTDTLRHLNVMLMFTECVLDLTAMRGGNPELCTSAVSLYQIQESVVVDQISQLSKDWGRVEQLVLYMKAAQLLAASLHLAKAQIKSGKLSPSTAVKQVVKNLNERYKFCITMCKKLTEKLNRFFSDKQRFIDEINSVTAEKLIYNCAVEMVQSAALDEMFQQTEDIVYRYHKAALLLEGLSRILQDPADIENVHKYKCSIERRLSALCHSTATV
Here is the method:
as §2

For a further assay, the target named is T7, Src (Homo sapiens, UniProt P12931).
T7 construct: lines 1-140) and Reaction Biology
T7 sequence (P12931 whole entry): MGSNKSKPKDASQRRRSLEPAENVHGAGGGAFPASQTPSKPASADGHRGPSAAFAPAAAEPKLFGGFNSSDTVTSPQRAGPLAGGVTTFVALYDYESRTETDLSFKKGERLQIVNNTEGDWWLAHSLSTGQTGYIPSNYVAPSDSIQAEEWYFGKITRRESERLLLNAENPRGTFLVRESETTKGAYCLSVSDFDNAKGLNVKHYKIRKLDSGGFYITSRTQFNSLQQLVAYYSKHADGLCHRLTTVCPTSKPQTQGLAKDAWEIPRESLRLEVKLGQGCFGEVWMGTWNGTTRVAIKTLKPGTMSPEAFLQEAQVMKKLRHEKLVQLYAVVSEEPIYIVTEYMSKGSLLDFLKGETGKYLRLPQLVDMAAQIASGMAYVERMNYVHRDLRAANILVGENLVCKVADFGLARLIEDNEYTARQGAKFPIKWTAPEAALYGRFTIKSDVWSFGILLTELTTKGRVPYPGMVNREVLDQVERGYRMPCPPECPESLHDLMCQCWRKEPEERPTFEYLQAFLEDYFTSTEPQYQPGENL
How it is done: as §2

In the next assay the target is T8, TGFBR1 (Homo sapiens, UniProt P36897).
T8 construct: lines 1-140) and Reaction Biology
T8 sequence (P36897 34-503): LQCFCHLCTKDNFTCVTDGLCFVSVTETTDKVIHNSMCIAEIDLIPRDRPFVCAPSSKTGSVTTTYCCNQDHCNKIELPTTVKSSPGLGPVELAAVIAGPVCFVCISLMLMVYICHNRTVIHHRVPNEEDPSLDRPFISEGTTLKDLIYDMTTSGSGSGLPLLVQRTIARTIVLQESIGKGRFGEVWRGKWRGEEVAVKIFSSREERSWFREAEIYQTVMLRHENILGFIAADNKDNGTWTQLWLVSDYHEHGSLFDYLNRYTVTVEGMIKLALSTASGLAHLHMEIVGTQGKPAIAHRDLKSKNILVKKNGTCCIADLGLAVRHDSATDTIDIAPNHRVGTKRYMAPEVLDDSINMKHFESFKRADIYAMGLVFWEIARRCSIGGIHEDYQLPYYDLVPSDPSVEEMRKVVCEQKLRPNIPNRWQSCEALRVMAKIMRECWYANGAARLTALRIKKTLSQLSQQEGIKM
Here is the method:
as §2

The next assay concerns the target T9, DYRK1A (Homo sapiens, UniProt Q13627).
T9 construct: lines 1-140) and Reaction Biology
How it is done: as §2

The target in a further assay is T10, ERK5 (Homo sapiens, UniProt Q13164).
T10 construct: lines 1-140) and Reaction Biology
T10 sequence (Q13164 whole entry): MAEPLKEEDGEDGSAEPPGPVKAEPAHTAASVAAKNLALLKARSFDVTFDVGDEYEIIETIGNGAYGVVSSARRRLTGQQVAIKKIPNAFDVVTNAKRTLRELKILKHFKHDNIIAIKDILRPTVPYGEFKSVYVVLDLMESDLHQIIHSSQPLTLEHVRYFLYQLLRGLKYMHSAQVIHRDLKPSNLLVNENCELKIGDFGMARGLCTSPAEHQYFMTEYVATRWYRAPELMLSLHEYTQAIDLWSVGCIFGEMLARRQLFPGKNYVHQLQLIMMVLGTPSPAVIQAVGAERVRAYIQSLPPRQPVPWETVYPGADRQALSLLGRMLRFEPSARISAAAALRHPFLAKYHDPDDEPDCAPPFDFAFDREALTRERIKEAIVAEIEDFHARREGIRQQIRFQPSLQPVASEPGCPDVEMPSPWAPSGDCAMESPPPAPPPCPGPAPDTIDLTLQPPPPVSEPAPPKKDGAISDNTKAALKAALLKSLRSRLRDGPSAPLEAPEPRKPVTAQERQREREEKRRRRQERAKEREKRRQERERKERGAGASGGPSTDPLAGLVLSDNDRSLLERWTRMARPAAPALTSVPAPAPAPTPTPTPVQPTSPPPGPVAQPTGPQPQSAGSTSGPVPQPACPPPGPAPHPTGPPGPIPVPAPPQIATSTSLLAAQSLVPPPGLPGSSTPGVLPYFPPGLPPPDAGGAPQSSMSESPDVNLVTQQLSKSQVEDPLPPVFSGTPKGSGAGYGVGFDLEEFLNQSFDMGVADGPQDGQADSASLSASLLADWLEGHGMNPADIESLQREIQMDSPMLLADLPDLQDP
How it is done: as §2

Molecules are shown by their SMILES.

T5 sequence (Q9Y4K4 whole entry): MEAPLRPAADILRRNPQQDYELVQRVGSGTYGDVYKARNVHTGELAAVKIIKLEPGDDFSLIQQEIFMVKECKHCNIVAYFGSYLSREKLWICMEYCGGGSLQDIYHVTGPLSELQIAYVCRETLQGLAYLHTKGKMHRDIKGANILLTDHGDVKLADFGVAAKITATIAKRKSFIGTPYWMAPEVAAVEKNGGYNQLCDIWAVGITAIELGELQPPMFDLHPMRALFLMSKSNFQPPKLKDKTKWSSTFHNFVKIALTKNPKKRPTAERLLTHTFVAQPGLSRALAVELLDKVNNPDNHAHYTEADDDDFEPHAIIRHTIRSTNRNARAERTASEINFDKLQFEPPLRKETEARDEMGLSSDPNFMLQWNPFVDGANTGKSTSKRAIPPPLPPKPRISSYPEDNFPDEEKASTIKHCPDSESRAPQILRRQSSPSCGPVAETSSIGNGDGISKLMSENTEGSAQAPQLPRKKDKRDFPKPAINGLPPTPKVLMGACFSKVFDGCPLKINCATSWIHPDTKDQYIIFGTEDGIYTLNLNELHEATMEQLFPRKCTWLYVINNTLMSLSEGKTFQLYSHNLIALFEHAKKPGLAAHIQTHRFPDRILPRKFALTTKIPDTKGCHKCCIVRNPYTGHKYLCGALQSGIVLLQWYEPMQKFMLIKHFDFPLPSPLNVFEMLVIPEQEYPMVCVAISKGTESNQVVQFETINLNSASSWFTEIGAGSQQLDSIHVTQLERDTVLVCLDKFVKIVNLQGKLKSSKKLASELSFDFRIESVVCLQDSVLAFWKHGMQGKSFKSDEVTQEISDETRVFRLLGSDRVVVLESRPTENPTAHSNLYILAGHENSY
T4 sequence (Q8N4C8 whole entry): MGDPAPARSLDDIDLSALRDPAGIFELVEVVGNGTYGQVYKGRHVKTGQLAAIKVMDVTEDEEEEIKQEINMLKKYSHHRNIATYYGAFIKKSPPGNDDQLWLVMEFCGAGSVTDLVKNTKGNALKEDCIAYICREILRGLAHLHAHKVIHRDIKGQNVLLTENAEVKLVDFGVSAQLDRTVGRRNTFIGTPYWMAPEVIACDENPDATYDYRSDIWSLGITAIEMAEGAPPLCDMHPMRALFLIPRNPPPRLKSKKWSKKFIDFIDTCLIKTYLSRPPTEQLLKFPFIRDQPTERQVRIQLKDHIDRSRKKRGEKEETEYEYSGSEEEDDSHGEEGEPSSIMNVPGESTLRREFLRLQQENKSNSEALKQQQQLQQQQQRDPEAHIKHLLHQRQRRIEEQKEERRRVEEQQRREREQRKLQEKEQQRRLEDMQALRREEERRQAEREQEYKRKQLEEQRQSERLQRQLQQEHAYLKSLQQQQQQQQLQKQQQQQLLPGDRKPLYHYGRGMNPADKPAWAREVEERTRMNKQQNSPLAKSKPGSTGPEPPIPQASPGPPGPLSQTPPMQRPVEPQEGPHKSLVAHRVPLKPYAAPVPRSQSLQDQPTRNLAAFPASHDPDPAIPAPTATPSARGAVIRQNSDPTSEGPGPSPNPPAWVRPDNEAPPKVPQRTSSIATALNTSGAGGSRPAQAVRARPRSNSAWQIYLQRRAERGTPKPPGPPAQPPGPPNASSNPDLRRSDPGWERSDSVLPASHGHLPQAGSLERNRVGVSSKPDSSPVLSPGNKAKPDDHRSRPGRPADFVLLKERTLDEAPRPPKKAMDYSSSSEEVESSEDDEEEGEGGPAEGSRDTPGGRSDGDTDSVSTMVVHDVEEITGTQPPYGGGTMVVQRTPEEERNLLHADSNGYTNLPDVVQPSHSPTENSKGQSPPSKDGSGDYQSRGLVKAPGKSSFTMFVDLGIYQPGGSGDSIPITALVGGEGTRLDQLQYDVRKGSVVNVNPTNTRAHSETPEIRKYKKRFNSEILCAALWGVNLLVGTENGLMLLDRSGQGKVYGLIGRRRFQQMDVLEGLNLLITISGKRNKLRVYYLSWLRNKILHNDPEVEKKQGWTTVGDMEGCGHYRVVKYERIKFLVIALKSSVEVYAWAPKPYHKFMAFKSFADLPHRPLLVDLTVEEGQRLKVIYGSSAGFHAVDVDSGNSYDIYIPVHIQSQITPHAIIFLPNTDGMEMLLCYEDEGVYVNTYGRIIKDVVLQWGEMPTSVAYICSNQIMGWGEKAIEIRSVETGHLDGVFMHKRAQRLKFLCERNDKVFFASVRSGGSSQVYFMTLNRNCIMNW
T3 sequence (Q9P0L2 whole entry): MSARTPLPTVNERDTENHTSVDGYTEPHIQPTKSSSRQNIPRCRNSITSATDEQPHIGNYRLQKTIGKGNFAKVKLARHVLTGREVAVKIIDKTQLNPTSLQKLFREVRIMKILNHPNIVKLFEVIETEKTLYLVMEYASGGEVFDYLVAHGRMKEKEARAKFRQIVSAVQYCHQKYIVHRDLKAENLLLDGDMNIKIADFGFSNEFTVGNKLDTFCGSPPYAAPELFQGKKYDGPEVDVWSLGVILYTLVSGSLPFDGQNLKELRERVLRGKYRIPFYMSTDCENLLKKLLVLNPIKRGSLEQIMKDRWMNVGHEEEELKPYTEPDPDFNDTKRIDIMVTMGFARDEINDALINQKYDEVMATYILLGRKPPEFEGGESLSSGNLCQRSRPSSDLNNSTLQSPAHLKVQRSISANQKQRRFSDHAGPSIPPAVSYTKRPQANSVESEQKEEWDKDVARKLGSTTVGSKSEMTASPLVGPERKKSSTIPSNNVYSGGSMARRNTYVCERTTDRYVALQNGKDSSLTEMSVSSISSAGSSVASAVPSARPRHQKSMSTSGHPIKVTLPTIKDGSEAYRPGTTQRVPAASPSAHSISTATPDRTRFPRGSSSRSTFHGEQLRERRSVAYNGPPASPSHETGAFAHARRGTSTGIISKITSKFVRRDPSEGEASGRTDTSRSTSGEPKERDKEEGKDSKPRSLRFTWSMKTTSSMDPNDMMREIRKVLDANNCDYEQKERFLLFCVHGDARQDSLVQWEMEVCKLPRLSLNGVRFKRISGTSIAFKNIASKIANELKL
T1 sequence (Q96GD4 whole entry): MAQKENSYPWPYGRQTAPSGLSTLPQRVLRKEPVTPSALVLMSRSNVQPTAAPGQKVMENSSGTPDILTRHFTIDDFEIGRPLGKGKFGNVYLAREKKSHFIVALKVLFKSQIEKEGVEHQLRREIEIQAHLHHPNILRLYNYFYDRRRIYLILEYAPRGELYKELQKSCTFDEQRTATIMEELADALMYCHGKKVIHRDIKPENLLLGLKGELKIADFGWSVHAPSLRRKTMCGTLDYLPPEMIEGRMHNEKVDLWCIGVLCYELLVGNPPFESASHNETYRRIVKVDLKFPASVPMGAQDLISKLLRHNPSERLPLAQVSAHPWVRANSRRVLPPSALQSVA

With `O=C1Nc2ccc(I)cc2/C1=C/c1cc(Br)c(O)c(Br)c1` [GW5074], the remaining activity at 1 µM at Aurora B worked out at 29%; on IKKe it was 82%.
As usually defined, the residual activity is the signal under treatment as a percentage of the control signal. `Nc1ncc(C(=O)NC2CN(C(=O)C3CC3)C2)c2ccc(-c3cccc(F)c3)nc12` [GNE-495]: the residual activity at MARK1 (1 μM) is recorded as 57%; at MINK1 (1 μM), 2%; at MAP4K5 (1 μM), 45%; at ULK2 (1 μM) it was 100%; on Src (1 μM), 122%; on TGFBR1 (1 μM), 94%. Moreover, the residual activity was 55% on DYRK1A (1 μM), 96% on ERK5 (1 μM), 46% on Aurora B (1 μM) and 79% on IKKe (1 μM).
Consider `Oc1ncnc2c1c(-c1ccccc1)cn2-c1ccccc1` [F1386-0303, 5,7-diphenyl-7H-pyrrolo[2,3-d]pyrimidin-4-ol], for which the remaining activity at 1 µM at MARK1 came out at 87%; at MINK1, 11%; on MAP4K5, 82%; at ULK2, 86%; at Src, 118%; on TGFBR1 it was 141%. The remaining activity at 1 µM was found to be 108% at DYRK1A, 93% at ERK5, 85% on Aurora B and 139% at IKKe.
Consider `COCCOc1ccc(-c2cn(-c3ccccc3)c3nc[nH]c(=O)c23)cc1` [DMX-5804, 5-[4-(2-methoxy-ethoxy)-phenyl]-7-phenyl-3,7-dihydro-pyrrolo[2,3-d]pyrimidin-4-one], for which the remaining activity at 1 µM at MARK1 amounted to 81%; on MINK1, 2%; at MAP4K5, 44%; on ULK2, 89%; at Src, 92%; at TGFBR1 it was 95%. Besides, the remaining activity at 1 µM on DYRK1A was found to be 110%; at ERK5 it was 115%; at Aurora B, 29%; at IKKe it was 106%.
Regarding `O=C1Cc2c([nH]c3ccc(Br)cc23)-c2ccccc2N1` [Kenpaullone], the remaining activity at 1 µM at Aurora B is 46%; at IKKe, 98%.

For the origin of these results see publication PMC6458995, “MAP4K4 Inhibition Promotes Survival of Human Stem Cell-Derived Cardiomyocytes and Reduces Infarct Size In Vivo” (Cell Stem Cell, 2019).
